US11952584B2, “Functional peptides having antimicrobial activity against phytopathogenic microorganisms” (TOYOTA JIDOSHA KABUSHIKI KAISHA, priority 2019, dated 2024)
Several values for one entry are separate records, joined by “and”; a condition that tells them apart may be missing. Equal values may be shown once. Read-outs that look alike come from different tables or passages of the source.

What was measured:
Type in all cases: cell-based
Fusarium oxysporum = test system: Fusarium oxysporum
[1] = test system: Colletotrichum orbiculare; conditions: 25° C., 1 day or 2 days
Pyricularia oryzae = conditions: 25° C., 1 day or 2 days
Botrytis cinerea = conditions: 25° C., 1 day or 2 days
[2] = test system: Colletotrichum destructivum; conditions: 25° C., 1 day or 2 days

Row | Substance | Plate antimicrobial activity test Fusarium oxysporum (level) (Fusarium oxysporum) | Plate antimicrobial activity test Collectotrichum orbiculare (level) ([1]; peptide 1 μM) | Plate antimicrobial activity test Collectotrichum orbiculare (level) ([1]; peptide 10 μM) | Plate antimicrobial activity test Collectotrichum orbiculare (level) ([1]; peptide 100 μM) | Plate antimicrobial activity test Pyricularia oryzae (level) (Pyricularia oryzae; peptide 1 μM) | Plate antimicrobial activity test Pyricularia oryzae (level) (Pyricularia oryzae; peptide 10 μM) | Plate antimicrobial activity test Pyricularia oryzae (level) (Pyricularia oryzae; peptide 100 μM) | Plate antimicrobial activity test Botrytis cinerea (level) (Botrytis cinerea; peptide 1 μM) | Plate antimicrobial activity test Botrytis cinerea (level) (Botrytis cinerea; peptide 10 μM) | Plate antimicrobial activity test Botrytis cinerea (level) (Botrytis cinerea; peptide 100 μM) | Plate antimicrobial activity test Colletotrichum destructivum (level) ([2]; peptide 1 μM) | Plate antimicrobial activity test Colletotrichum destructivum (level) ([2]; peptide 10 μM) | Plate antimicrobial activity test Colletotrichum destructivum (level) ([2]; peptide 100 μM)
1 | ILLSLEIFERKFSRSVWYYGFP [TsORF18-1] | 0 | 0 | 0 | 0 | 0 | 0 | 0 | 0 | 0 | 0 | 0 | 0 | 0
2 | GFPAF (listed as Solanum lycopersicum) [TsORF18-2-5aa-3] | 0 | 0 | 0 | 0 | 0 | 0 | 0 | 0 | 0 | 0 | 0 | 0 | 0
3 | PAFSERTR (listed as Solanum lycopersicum) [TsORF18-2-8aa-5] | 0 | 0 | 0 | 0 | 0 | 0 | 0 | 0 | 0 | 0 | 0 | 0 | 0
4 | YYGFPAFS (listed as Solanum lycopersicum) [TsORF18-2-8aa-1] | 0 | 0 | 0 | 0 | 0 | 0 | 0 | 0 | 0 | 0 | 0 | 0 | 0
5 | GFPAFSER (listed as Solanum lycopersicum) [TsORF18-2-8aa-3] | 0 | 0 | 0 | 0 | 0 | 0 | 0 | 0 | 0 | 0 | 0 | 0 | 0
6 | FSERTRKF (listed as Solanum lycopersicum) [TsORF18-2-8aa-7] | 0 | 0 | 0 | 0 | 0 | 0 | 0 | 0 | 0 | 0 | 0 | 0 | 0
7 | TRKFW (listed as Solanum lycopersicum) [TsORF18-2-5aa-11] | 0 | 0 | 0 | 0 | 0 | 0 | 0 | 0 | 0 | 0 | 0 | 0 | 0
8 | AFSERTRK (listed as Solanum lycopersicum) [TsORF18-2-8aa-6] | 0 | 0 | 0 | 0 | 0 | 0 | 0 | 0 | 0 | 0 | 0 | 0 | 0
9 | YYGFP (listed as Solanum lycopersicum) [TsORF18-2-5aa-1] | 0 | 0 | 0 | 0 | 0 | 0 | 0 | 0 | 0 | 0 | 0 | 0 | 0
10 | PAFSE (listed as Solanum lycopersicum) [TsORF18-2-5aa-5] | 0 | 0 | 0 | 0 | 0 | 0 | 0 | 0 | 0 | 0 | 0 | 0 | 0
11 | RIWKGKTS (listed as Solanum lycopersicum) [TsORF18-2-8aa-16] | 1 and 0 | 0 | 0 | 1 | 0 | 0 | 0 | 0 | 0 | 2 | 0 | 0 | 0
12 | IWKGK (listed as Solanum lycopersicum) [TsORF18-2-5aa-17] | 0 | 0 | 0 | 0 | 0 | 0 | 0 | 0 | 0 | 0 | 0 | 0 | 0
13 | AFSER (listed as Solanum lycopersicum) [TsORF18-2-5aa-6] | 0 | 0 | 0 | 0 | 0 | 0 | 0 | 0 | 0 | 0 | 0 | 0 | 0
